Reference: US10697020B2, “MicroRNA-129 as a biomarker for colorectal cancer” (THE RESEARCH FOUNDATION FOR THE STATE UNIVERSITY OF NEW YORK, priority 2013, dated 2020)

Columns and labels:
[1] = test system: HCT116 cells; assay: Colorectal cancer xenografts (HCT116) in NOD/SCID mice, tumor volume; type: in vivo; conditions: day 24
Description: When solid and palpable tumors with an average volume of 100-150 mm^3 were formed (at day 14), mice were randomly separated into four groups such that each group was treated either with negative control miRNA, miR-129 alone, 5-FU alone or miR-129 and 5-FU together. The miRNAs were complexed with siPORTamine and injected intratumorally while 5-FU (50 μg g^−1) was injected systemically via the tail vein. All injections were provided in 3-day intervals for a total of three times before the tumors were collected at day 24. […] Importantly, despite the overexpression, the expression levels of miR-129 copy number remained within the physiological range (less than 20 copies/cell based on cycle threshold value at 30, which is equal to the expression of miR-129 in normal colon mucosa). Moreover, the control tumor xenografts had no miR-129 expression (cycle threshold value at 35).
Ten-twelve week old NOD/SCID mice (Jackson Laboratories, Bar Harbor, […]., USA) were used for tumor implantation. All animal procedures were approved by the Stony Brook University Institutional Animal Care and Use Committee (IACUC). The tumor implantation and miRNA injection protocol was modified from Trang et al. (see Trang P., et al., Oncogene. (2010) 29(11):1580-7). The mice were anesthetized by isoflurane inhalation. HCT116 cells were subcutaneously injected into the lower back areas of the mice using 2.5×10^6 cells in 100 μl McCoy's 5A with 50% matrigel (BD Biosciences). The tumor size was measured using a caliper and tumor volume was calculated using the formula V=length×width^2/2. When tumor volumes reach 100-150 mm^3 at day 14 post-injection, the mice were randomly assigned into four groups. For the first two groups, 10 μM negative miRNA or miR-129 precursor (Ambion) complexed with 1.6 μl siPORTAmine (Ambion) in 50 μl McCoy's 5A was injected into the tumors every three days. For the third group, 5-FU (Sigma-Aldrich) was injected at 50 μg/g via the tail vein every three days. Finally, for the last group, both miR-129 precursor and 5-FU were injected as described above. The mice were euthanized on day 24 post-injection by CO2 inhalation, and tumors were dissected out for RNA isolation.

[2] = test system: HCT116 cells; assay: Cell proliferation assay (WST-1), HCT116; type: cell-based, human; conditions: day 5
Description: HCT116, RKO and SW480 cells were plated in 6-well plates at 2×10^5, 1×10^5 and 1×10^5 per well, respectively. Twenty-four hours after plating, 100 nM of miR-129 precursor (Ambion, Carlsbad, Calif., USA) or siRNA against BCL2 (Dharmacon, Lafayette, Colo., USA) were transfected to the cells with oligofectamine (Invitrogen, Carlsbad, Calif., USA) in accordance with the manufacturer's protocol. Negative miRNA (Ambion) was also transfected as a negative control.
Twenty-four hours after transfection, cells were seeded in 96-well plates at a density of 2000 cells per well. The cell proliferation assay was performed on days 1, 3 and 5 by incubating 10 μl WST-1 (Roche Applied Science, Mannheim, Germany) in the culture medium for 1 h and reading the absorbance at 450 and 630 nm. The cell proliferation rate was calculated by […]. Experiments for the cell proliferation assay were performed at least three times.

miR-129: nucleic acid having a sequence of CUUUUUGCGGUCUGGGCUUGC (SEQ ID NO. 1); miR-129 precursor from Ambion used (chemistry not given here; listed as Homo sapiens)
inhibition of tumor growth (in words) ([1]; HCT116 xenograft, compared with negative miRNA or single agents): sufficiently reduced tumor size
average tumor volume, % of the control group ([1]; treated days 14, 17, 20, miRNA intratumoral with siPORTamine, 5-FU 50 μg/g tail vein, control negative miRNA): ~84.4%
cell proliferation reduced compared to negative controls [2]: 41.2%
